Experimental data as given in patent publication US20260207735A1, “Pharmaceutical compositions, vaccines and their uses in the prevention or treatment of a persistent infection or of cancer” (Universitätsmedizin der Johannes Gutenberg-Universität Mainz, priority 2018, published 2026).

Tests used:
influenza = conditions: combined with a vaccine, compared to the vaccine alone; cited from earlier work
CD8+ T cell response = conditions: following transcutaneous immunization with imiquimod in mice; cited from earlier work
[1] = tested on: peptide-specific CD8+ T cells; assay: Imiquimod based TCI, memory immune response (secondary T cell response), Day 35; type: in vivo, C57BL/6 mice; conditions: dithranol 0.0625% in Vaseline 24 h before TCI; read-out Day 35
Procedure: C57BL/6 mice (n=3-8 per group) were immunized by TCI, performed as described in FIG. 1 (A) The frequency of peptide-specific CD8^+ T cells was assessed on Day 35 via flow cytometry. (B) The in vivo cytolytic activity was analyzed on Day 35, 20 h after transfer of peptide-loaded splenocytes. (C) IFN-γ production of splenocytes on Day 35 post the indicated treatments. Splenocytes were re-stimulated with the indicated peptides for 24 h before harvest and analysis by ELISpot assay. * Significance by One Way ANOVA with Bonferroni Posttest analysis; p<0.05 (*). […]
For detecting in vivo cytolytic activity, splenocytes of syngenic wildtype mice were labeled with different amounts of 5,6-carboxyfluorescein diacetate succinimidyl ester (CFSE; Invitrogen, Carlsbad, USA) resulting in a CFSE^low and a CFSE^high population. […] Specific lysis was evaluated as following: Specific lysis (%)=100×(1−([…]). All analyses were performed with a LSRII Flow Cytometer and FACSDiva Software (Becton Dickinson, Franklin Lakes, USA). […]

[2] = tested on: peptide-specific CD8+ T cells; assay: Imiquimod based transcutaneous immunization (TCI), primary T cell response (tetramer flow cytometry, in vivo cytolytic activity, IFN-γ ELISpot); parameters: species or system C57BL/6 mice; conditions: for T cell activation (primary T cell response): 0.0625% in Vaseline on ear skin 24 h before TCI (IMI-Sol + OVA peptides), read-out day 7
[3] = tested on: CD11c positive Dendritic cells (DCs); assay: TLR7 mediated activation of splenic dendritic cells in vitro (CD40, CD80, CD86 by flow cytometry); type: cell-based, C57BL/6 mice; conditions: R-848 10 μg/ml, 24 h incubation; NAC 5 mM
Procedure: CD11c positive Dendritic cells (DCs) were purified from spleens from C57BL/6 mice) as described in Weber M et al. (2014) and activated as indicated with the TLR7/8 agonist R-848 (10 μg/ml), anthralin (dithranol), N-acetyl cysteine (NAC 5 mM) or left untreated in Iscoves's medium+5% FCS (Michael Weber et al., “Donor and Host B Cell-Derived IL-10 Contributes to Suppression of Graft-Versus-Host Disease.,” European Journal of Immunology 44, no. 6 (June 2014): 1857-65, doi:10.1002/eji.201344081).
After 24 h incubation, the cells were harvested, labeled with specific mAbs and analyzed by flow cytometry for the activation markers CD40, CD80 and CD86 gating on live (propidium iodide negative, CD11c/MHC class II positive DCs).
Spleens of C57BL6/J wildtype mice were harvested, picked and digested for 45 min with type 2 collagenase (50 U/ml from Worcester, Pappenheim, Germany) and stopped by adding 2 mM EDTA (from Sigma-Aldrich, Taufkirchen, Germany). After a hypotonic lysis step DCs were isolated using CD11c MicroBeads UltraPure (Miltenyi Biotec, Germany) following the manufacturer's instruction. 2×10^5 CD11c^+ DCs/well were plated in 96 well plates and cultivated for either 24 or 48 h in the presence of TLR7 ligand R-848 (10 μg/ml) and/or different concentrations of anthralin (solved in DMSO). […] Following cytokines were quantified using CBA technology: IL-1b; IL-6; IL-10; IL-12; IL-23; TNF-α.

[4] = α-Tocopherol 600 U/kg i.p. 1 h before anthralin and/or TCI, day 7

CC(C)Cn1cnc2c(N)nc3ccccc3c21 [Imiquimod, imiquimod]
survival of mice (influenza): improve survival of mice

Oc1cc2ccccc2c2ccccc12 [9-phenanthrol]
generation of a CD8+ T cell response (CD8+ T cell response): enhances the generation of a CD8+ T cell response

O=C1c2c(O)cccc2Cc2cccc(O)c21 [dithranol, 1,8-dihydroxy-9-anthrone]
T cell activation including memory T cell formation (secondary T cell response) [1]: synergistic effect on T cell activation on CD8 positive as well as CD4 positive T cells including memory T cell formation
T cell activation (primary T cell response) [2]: synergistic effect on T cell activation on CD8 positive as well as CD4 positive T cells
site dependence of synergistic T cell activation ([2]; TCI on both ears or only one ear, day 7): required at the same site (ear) to mediate synergistic T cell activation
TLR7 mediated activation of DCs (CD40, CD80, CD86) [3]: suppresses the TLR7 mediated activation of DCs in vitro

CC(=O)N[C@@H](CS)C(=O)O [NAC, N-acetyl cysteine]
TLR7 mediated activation of DCs (CD40, CD80, CD86) [3]: activation phenotype is restored

Cc1c(C)c2c(c(C)c1O)CC[C@@](C)(CCC[C@H](C)CCC[C@H](C)CCCC(C)C)O2 [α-Tocopherol]
CTL frequency (peptide-specific CD8+ T cells) [2, 4]: without affecting CTL frequency
in vivo cytolytic activity induced by dithranol (anthralin) TCI [2, 4]: antagonizes the enhanced cytolytic activity induced by dithranol (anthralin) TCI

O=C1c2cccc(O)c2C(=O)c2c(O)cccc21 [danthron]
T cell activation (primary T cell response) [2]: no impact on T cell activation
